# “Also recorded” adds a separate entry of the source.
# Tests used:
# [1] = tested on: pig sciatic nerve tissue cross sections; test: Ex vivo nerve-specific fluorophore screening on nerve tissue sections; details: 100 μM fluorophore, 20 min incubation, pig sciatic nerve sections
# Experimental: Phase contrast image (top) and fluorescence image (bottom) of nerve tissue sections incubated with 100 μM of test fluorophores are shown. Nerve-specific fluorescence intensity was determined using staining of pig sciatic nerve cut in cross section. Nerve tissue sections were incubated in 30% FBS solutions without (negative control, autofluorescence only) and with each fluorophore. As a positive control, previously reported nerve-specific BMB was used. Shown are phase contrast image (top) and fluorescence image (bottom) of nerve tissue sections incubated with 100 μM of each fluorophore. The control autofluorescence images were taken with equivalent exposure time and normalization. Arrowheads indicate fluorescence signals in nerve bundles. Ad=adipose tissue. Scale bars=200 μm. The SBR of each nerve relative to the neighboring adipose tissue was quantified and labeled as—, SBR<1; +, SBR=1−2; and ++, SBR >2.
# Sciatic nerves from female Yorkshire pigs were harvested, fixed in 2% paraformaldehyde (PFA), and flash frozen in optimal cutting temperature (OCT) compound using liquid nitrogen. Nerve tissues were cut in cross section using a cryostat at […] thickness onto positively charge glass slides. Tissue sections were washed once with phosphate buffered saline (PBS) for 2 min to remove residual OCT. The tissue was then fixed to the slide with 2% PFA for 15 min, followed by washing with PBS (3×5 min). A formulation was previously developed for intravenous (IV) administration and was used in the current study to incubate the fluorophores with the nerve tissue (25). All fluorophores were mixed from the 100 mM stock solution into the IV formulation at 100 µM and incubated with the washed nerve tissue sections at room temperature for 20 min. Additional IV formulation not containing fluorophore was mixed and used to wash each nerve section twice (5 min per wash) following incubation with the formulated fluorophore. The nerve section was then washed an additional 2 times with PBS (5 min per each), after which coverslips were mounted using Fluoromount-G (Southern Biotech, Birmingham, Ala.).
# NIR fluorescence microscopy for ex vivo nerve tissue slides was performed on a Nikon Eclipse TE300 microscope system as previously described (12, 19, 25). The microscope was equipped with a 100 W mercury light source, NIR-compatible optics, and a NIR-compatible 10× Plan Fluor objective lens and a 100× Plan Apo oil immersion objective lens (Nikon, Melville, N.Y.). Images were acquired on an Orca-AG (Hamamatsu, Bridgewater, N.J.). Image acquisition and analysis was performed using IPLab software (Scanalytics, Fairfax, Va.). A custom filter set (Chroma Technology Corporation, Brattleboro, Vt.) composed of a 650±22 nm excitation filter, a 675 nm dichroic mirror, and an 710±25 nm emission filter were used to detect Oxazine derivatives and Rhodamine 800 signals in the nerve tissue slides. For BMB, a mercury light source was passed through a 360±25 nm BP excitation filter, a 400 nm LP beam splitter, and a 550±50 nm emission filter.
# [2] = tested on: rat brachial plexus and sciatic nerves; test: In vivo nerve-specificity screening with FLARE imaging
# Text: The dual-NIR channel FLARE^a imaging system has been described in detail previously (26-28). In this study, a 670 nm excitation was used at a fluence rate of 4 mW/cm^2, with white light (400-650 nm) at 40,000 1×. Color and NIR fluorescence images were acquired simultaneously with custom software at rates up to 15 Hz over a 15 cm diameter field of view. A pseudo-colored lime green was used for NIR fluorescence in the color-NIR merged images. The imaging system was positioned at a distance of 18 inches from the surgical field.
# Initial in vivo screening occurred in rats based on our previous study of BMB (Supplementary Methods) (25). For kinetic and dose-response studies, 50-400 nmol (0.8-6.3 mg/kg) of Oxazine 4 was injected intravenously into mice and measurements taken over 24 h. Control images were acquired prior to injecting NIR fluorophores. The fluorescence signal in nervous tissues and signal-to-background ratio (SBR) compared to neighboring muscle (Mu) were obtained over the period of imaging. For the large animal study, the optimal dose found in mice (200-400 nmol per mouse) was used in pigs by scaling to body surface area (29, 30).
# Sprague-Dawley (SD) male rats weighing 250-300 g were purchased from Charles River Laboratories (Wilmington, Mass.). BMB, Oxazine 1, Oxazine 4, Oxazine 170, Oxazine 750, and Rhodamine 800 were initially screened to investigate nerve specificity in rats. For the initial screening, we administered a relatively high dose (2 mg/kg; 1 μmol) of each fluorophore intravenously. 4 h after injection, brachial plexus (BP) and sciatic nerve (SN) were imaged using the intraoperative FLARE^a system for in vivo nerve-specific fluorophores screening.
# [3] = Optical property measurements (absorbance and fluorescence spectra); type: physicochemical; details: 100% FBS with 50 mM HEPES, pH 7.4, 37° C.
# Experimental: Absorbance and fluorescence spectra were obtained at a concentration of […] in 100% FBS supplemented with 50 mM HEPES, pH 7.4. B) Optical properties of Oxazine 4 were measured in PBS (pH 7.4), FBS (pH 7.4), MeOH, and DMSO.
# Oxazine derivatives were obtained from Fisher Scientific Inc. (Pittsburgh, Pa.) or Sigma-Aldrich (Saint Louis, Mo.), and BMB was synthesized as described previously (25). Optical measurements were performed at 37° C. in phosphate-buffered saline (PBS), pH 7.4 or 100% fetal bovine serum (FBS) buffered with 50 mM HEPES, pH 7.4. Absorbance and fluorescence emission spectra were measured using fiber optic HR2000 absorbance (200-1100 nm) and USB2000FL fluorescence (350-1000 nm) spectrometers (Ocean Optics, Dunedin, Fla.). NIR excitation was provided by a 532 nm green laser pointer (Opcom Inc., Xiamen, China) set to 5 mW and coupled through a […] core diameter, NA 0.22 fiber (Fiberguide Industries, Stirling, N.J.). In silico calculation of the partition coefficient (log D at pH 7.4) was calculated using Marvin and J Chem calculator plugins (ChemAxon, Budapest, Hungary). Chemical similarities were calculated by Instant J Chem 6.04 using “Chemical Hashed Fingerprint” with the Normalized Euclidean dissimilarity screening configuration (ChemAxon).
# All optical measurements were performed at 37° C. in phosphate-buffered saline (PBS), pH 7.4, 100% fetal bovine serum (FBS) buffered with 50 mM HEPES, pH 7.4, methanol (MeOH), or dimethyl sulfoxide (DMSO). Absorbance and fluorescence emission spectra of the series of NIR fluorophores were measured using fiber optic HR2000 absorbance (200-1100 nm) and USB2000FL fluorescence (350-1000 nm) spectrometers (Ocean Optics, Dunedin, Fla.). Excitation light was provided by a 532 nm green laser pointer (Opcom Inc., Xiamen, China) set to 5 mW and coupled through a 300 μm core diameter, NA 0.22 fiber (Fiberguide Industries, Stirling, N.J.). In silico calculation of the partition coefficient (log D at pH 7.4) was calculated using Marvin and J Chem calculator plugins (ChemAxon, Budapest, Hungary).
# [4] = comparison of structures in discussion
smiles,measurement,setting,value
CC/N=c1/cc2oc3cc(NCC)c(C)cc3nc-2cc1C [Oxazine 4],nerve-specific fluorescence signal in cross-sectioned nerve,[1],strong fluorescence signal throughout the cross-sectioned nerve
same,nerve-specific fluorescence signal in vivo,"[2]; SD rats, 2 mg/kg (1 μmol) iv, 4 h after injection, brachial plexus and sciatic nerve, 2 mg/kg",highest nerve-specific fluorescence signal; also recorded: higher nerve-specific fluorescence signal
same,background (muscle and adipose tissue) fluorescence signal in vivo,"[2]; SD rats, 2 mg/kg (1 μmol) iv, 4 h after injection, 2 mg/kg",lowest background; also recorded: lower background
same,adipose signal (discussion summary),[2]; [4],moderate adipose
same,nerve signal (discussion summary),[2]; [4],high nerve signal
same,Abs (peak absorbance),[3],616 nm
same,Em (peak emission),[3],635 nm
same,λ (extinction coefficient),[3],"143,000 M^−1cm^−1"

# From patent US11001562B2, “Near-infrared fluorescent nerve contrast agents and methods of use thereof” (Beth Israel Deaconess Medical Center, priority 2013, dated 2021)
